Reference: article PMC6372246 (ACS Omega, 2019)
Several values for one entry are separate records, joined by “and”; a condition that tells them apart may be missing. Equal values may be shown once.

Legend:
[1] = target: GRPR; conditions: read-out: Ki (reported value); murine Swiss 3T3 cells; cited from earlier work
[2] = target: GRPR (Homo sapiens, UniProt P30550); assay: Fluorometric calcium release assay; assay type: cell-based; conditions: PC-3 cells, 50 nM
Sequence of GRPR (Homo sapiens, UniProt P30550) (P30550 whole entry): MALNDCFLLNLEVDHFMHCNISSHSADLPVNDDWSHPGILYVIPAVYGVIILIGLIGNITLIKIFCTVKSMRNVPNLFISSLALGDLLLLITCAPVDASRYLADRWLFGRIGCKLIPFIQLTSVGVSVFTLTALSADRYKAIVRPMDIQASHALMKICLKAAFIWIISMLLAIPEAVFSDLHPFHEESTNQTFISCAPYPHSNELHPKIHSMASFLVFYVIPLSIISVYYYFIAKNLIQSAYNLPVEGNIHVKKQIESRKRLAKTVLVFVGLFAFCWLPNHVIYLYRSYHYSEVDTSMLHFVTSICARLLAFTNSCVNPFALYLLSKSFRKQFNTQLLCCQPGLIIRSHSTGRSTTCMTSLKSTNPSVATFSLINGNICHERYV

Row | Intracellular calcium release [2] | Molecule | Ki [1] [nM]
1 |  | D-Phe-Gln-Trp-Ala-Val-Gly-His-Leu-ψ-Tac-NH2 [RC-3950-II] | 0.078
2 | 511 ± 45.5 RFUs and > 500 RFUs | Nc1ncnc2c1ncn2[C@@H]1O[C@H](COP(=O)(O)OP(=O)(O)OP(=O)(O)O)[C@@H](O)[C@H]1O [ATP, adenosine triphosphate] | 
